Experimental findings from US11504382B2, “Tricyclic inhibitors of Hepatitis B virus” (Antios Therapeutics, Inc., priority 2018, dated 2022) are described below.

For orientation: EC50 means the concentration at which the effect is half-maximal.

SMILES strings stand for the structures.

One test has as its system HBV. In words: HBV inhibition assay in HepAD38 cells (extracellular HBV DNA by direct qPCR). It is filed as cell-based, Hepatitis B virus. The conditions noted are these: 96 hours, 8-point dose-response curve, read-out: HBV inh EC50. In general terms: Quantitative PCR measures a nucleic acid by following its amplification.
Take `Cc1nnc(C(=O)N2CCC3NS(=O)(=O)c4cn(C)c(C(=O)Nc5ccc(F)c(C)c5)c4OCC3C2)o1` (racemic) [Example E130, Trans-N-(4-fluoro-3-methylphenyl)-2-methyl-8-(5-methyl-1,3,4-oxadiazole-2-carbonyl)-5,5a,6,7,8,9,9a,10-octahydro-2H-pyrido[4,3-f]pyrrolo[3,4-b][1,4,5]oxathiazocine-1-carboxamide 4,4-dioxide]: the EC50 is < 1000 nM.

Consider `Cc1cc(NC(=O)c2c3c(cn2C)S(=O)(=O)NC2CCN(C(=O)C4(C)CCCO4)CC2CO3)ccc1F` (racemic) [Example E132, Trans-N-(4-fluoro-3-methylphenyl)-2-methyl-8-(2-methyltetrahydrofuran-2-carbonyl)-5,5a,6,7,8,9,9a,10-octahydro-2H-pyrido[4,3-f]pyrrolo[3,4-b][1,4,5]oxathiazocine-1-carboxamide 4,4-dioxide], for which the EC50 was < 1000 nM.

As to `Cc1cc(NC(=O)c2c3c(cn2C)S(=O)(=O)NC2CCN(C(=O)C45CC(CO4)C5)CC2CO3)ccc1F` (racemic) [Example E133, Trans-8-(2-oxabicyclo[2.1.1]hexane-1-carbonyl)-N-(4-fluoro-3-methylphenyl)-2-methyl-5,5a,6,7,8,9,9a,10-octahydro-2H-pyrido[4,3-f]pyrrolo[3,4-b][1,4,5]oxathiazocine-1-carboxamide 4,4-dioxide], the EC50 was < 1000 nM.

Consider `Cc1cc(NC(=O)c2c3c(cn2C)S(=O)(=O)NC2CN(C(=O)C4(C)COC4)CCC2CO3)ccc1F` (racemic) [Example E141, Trans-N-(4-fluoro-3-methylphenyl)-2-methyl-7-(3-methyloxetane-3-carbonyl)-5,5a,6,7,8,9,9a,10-octahydro-2H-pyrido[3,4-f]pyrrolo[3,4-b][1,4,5]oxathiazocine-1-carboxamide 4,4-dioxide], for which the EC50 is < 1000 nM.

The test is the same for the next values; noted with them: Hepatitis B virus, 0.1 μM, 96 hours, relative to non-treated reference, read-out: Anti HBV Activity (conc μM).
Consider `Cn1cc2c(c1C(=O)Nc1cc(F)c(F)c(F)c1)OCC1CCCC1NS2(=O)=O` (racemic) [Example E28, cis (5aR,8aS and 5aS,8aR)-2-methyl-N-(3,4,5-trifluorophenyl)-5a,6,7,8,8a,9-hexahydro-2H,5H-cyclopenta[f]pyrrolo[3,4-b][1,4,5]oxathiazocine-1-carboxamide 4,4-dioxide], for which the inhibition at 0.1 µM is > 50%.

The test is the same for the next values; noted with them: Hepatitis B virus, 0.5 μM, 96 hours, relative to non-treated reference, read-out: Anti HBV Activity (conc μM).
For the compound `Cn1cc2c(c1C(=O)Nc1ccc(F)c(F)c1)OC[C@@]1(O)CCC[C@H]1NS2(=O)=O` (racemic) [Example E30, cis-N-(3,4-difluorophenyl)-8a-hydroxy-2-methyl-5a,6,7,8,8a,9-hexahydro-2H,5H-cyclopenta[f]pyrrolo[3,4-b][1,4,5]oxathiazocine-1-carboxamide 4,4-dioxide], the inhibition at 0.5 µM was < 50%.

Still in this test, the particulars now being: Hepatitis B virus, 96 hours, 8-point dose-response curve, read-out: HBV inh EC50.
Take `Cn1cc2c(c1C(=O)Nc1cc(F)c(F)c(F)c1)OCC1CCCC1NS2(=O)=O` (racemic) [Example E28, cis (5aR,8aS and 5aS,8aR)-2-methyl-N-(3,4,5-trifluorophenyl)-5a,6,7,8,8a,9-hexahydro-2H,5H-cyclopenta[f]pyrrolo[3,4-b][1,4,5]oxathiazocine-1-carboxamide 4,4-dioxide]: the EC50 is < 1000 nM.

Take `Cc1nnc(C(=O)N2CCC3NS(=O)(=O)c4cn(C)c(C(=O)Nc5ccc(F)c(C)c5)c4OCC3C2)o1` (racemic) [Example E125, Cis-N-(4-fluoro-3-methylphenyl)-2-methyl-8-(5-methyl-1,3,4-oxadiazole-2-carbonyl)-5,5a,6,7,8,9,9a,10-octahydro-2H-pyrido[4,3-f]pyrrolo[3,4-b][1,4,5]oxathiazocine-1-carboxamide 4,4-dioxide]: the EC50 is < 1000 nM.

`Cc1cc(NC(=O)c2c3c(cn2C)S(=O)(=O)NC2CCN(C(=O)C4(C)COC4)CC2CO3)ccc1F` (racemic) [Example E126, Cis-N-(4-fluoro-3-methylphenyl)-2-methyl-8-(3-methyloxetane-3-carbonyl)-5,5a,6,7,8,9,9a,10-octahydro-2H-pyrido[4,3-f]pyrrolo[3,4-b][1,4,5]oxathiazocine-1-carboxamide 4,4-dioxide]: the EC50 was < 1000 nM.

Regarding `Cc1cc(NC(=O)c2c3c(cn2C)S(=O)(=O)NC2CCN(C(=O)C4(C)CCCO4)CC2CO3)ccc1F` (racemic) [Example E127, Cis-N-(4-fluoro-3-methylphenyl)-2-methyl-8-(2-methyltetrahydrofuran-2-carbonyl)-5,5a,6,7,8,9,9a,10-octahydro-2H-pyrido[4,3-f]pyrrolo[3,4-b][1,4,5]oxathiazocine-1-carboxamide 4,4-dioxide], the EC50 is < 1000 nM.

As to `Cc1cc(NC(=O)c2c3c(cn2C)S(=O)(=O)NC2CCN(C(=O)C45CC(CO4)C5)CC2CO3)ccc1F` (racemic) [Example E128, Cis-8-(2-oxabicyclo[2.1.1]hexane-1-carbonyl)-N-(4-fluoro-3-methylphenyl)-2-methyl-5,5a,6,7,8,9,9a,10-octahydro-2H-pyrido[4,3-f]pyrrolo[3,4-b][1,4,5]oxathiazocine-1-carboxamide 4,4-dioxide], the EC50 is < 1000 nM.

For the compound `Cc1cc(NC(=O)c2c3c(cn2C)S(=O)(=O)NC2CCN(C(=O)c4ncoc4C)CC2CO3)ccc1F` (racemic) [Example E134, Trans-N-(4-fluoro-3-methylphenyl)-2-methyl-8-(5-methyloxazole-4-carbonyl)-5,5a,6,7,8,9,9a,10-octahydro-2H-pyrido[4,3-f]pyrrolo[3,4-b][1,4,5]oxathiazocine-1-carboxamide 4,4-dioxide], the half-maximal effective concentration (EC50) is < 1000 nM.

Take `Cc1nnc(C(=O)N2CCC3COc4c(cn(C)c4C(=O)Nc4ccc(F)c(C)c4)S(=O)(=O)NC3C2)o1` (racemic) [Example E135, Cis-N-(4-fluoro-3-methylphenyl)-2-methyl-7-(5-methyl-1,3,4-oxadiazole-2-carbonyl)-5,5a,6,7,8,9,9a,10-octahydro-2H-pyrido[3,4-f]pyrrolo[3,4-b][1,4,5]oxathiazocine-1-carboxamide 4,4-dioxide]: the EC50 was < 1000 nM.

In the case of `Cc1cc(NC(=O)c2c3c(cn2C)S(=O)(=O)NC2CN(C(=O)C4(C)COC4)CCC2CO3)ccc1F` (racemic) [Example E136, Cis-N-(4-fluoro-3-methylphenyl)-2-methyl-7-(3-methyloxetane-3-carbonyl)-5,5a,6,7,8,9,9a,10-octahydro-2H-pyrido[3,4-f]pyrrolo[3,4-b][1,4,5]oxathiazocine-1-carboxamide 4,4-dioxide], the EC50 was < 1000 nM.

As to `Cc1cc(NC(=O)c2c3c(cn2C)S(=O)(=O)NC2CN(C(=O)C45CC(CO4)C5)CCC2CO3)ccc1F` (racemic) [Example E138, Cis-7-(2-oxabicyclo[2.1.1]hexane-1-carbonyl)-N-(4-fluoro-3-methylphenyl)-2-methyl-5,5a,6,7,8,9,9a,10-octahydro-2H-pyrido[3,4-f]pyrrolo[3,4-b][1,4,5]oxathiazocine-1-carboxamide 4,4-dioxide], the EC50 is < 1000 nM.

Regarding `Cc1cc(NC(=O)c2c3c(cn2C)S(=O)(=O)NC2CN(C(=O)c4ncoc4C)CCC2CO3)ccc1F` (racemic) [Example E139, Cis-N-(4-fluoro-3-methylphenyl)-2-methyl-7-(5-methyloxazole-4-carbonyl)-5,5a,6,7,8,9,9a,10-octahydro-2H-pyrido[3,4-f]pyrrolo[3,4-b][1,4,5]oxathiazocine-1-carboxamide 4,4-dioxide], the EC50 is < 1000 nM.

Still in this test, the particulars now being: read-out: HBV inh EC50, 96 hours, 8-point dose-response curve.
In the case of `Cc1cc(NC(=O)c2c3c(cn2C)S(=O)(=O)NC2CCN(C(=O)c4ncoc4C)CC2CO3)ccc1F` (racemic) [Example E129, Cis-N-(4-fluoro-3-methylphenyl)-2-methyl-8-(5-methyloxazole-4-carbonyl)-5,5a,6,7,8,9,9a,10-octahydro-2H-pyrido[4,3-f]pyrrolo[3,4-b][1,4,5]oxathiazocine-1-carboxamide 4,4-dioxide], the EC50 is < 1000 nM.
